Test results from PubChem BioAssay AID1963435 (Molecular Pharmacology Branch, DTP, NCI, 2024).

Tested on: PANC-1 complex spheroid growth, percent test/control
Test: Anticancer human tumor PANC-1 cell line growth inhibition [Asc];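 further: spheroids exposed to agents for 7 days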;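 on viability, T/C: percent viability relative to DMSO vehicle wells taken as 100%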
Conditions: for IC50: curve of first compound; for viability, T/C: stronger effect = lower value
How it was run: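 Complex spheroids combining tumor cells with HUVEC endothelial cells and human MSCs, at 37 degrees C, 5% CO2; agents tested alone or combined, half-log dilutions from at or near clinical Cmax, or 10 microM if Cmax unknown.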

COc1c(OCCCN2CCOCC2)ccc2c3n(c(=NC(=O)c4cnc(N)nc4)nc12)CCN3 + CCN1C(C(=O)NC23CCC(C(=O)O)(CC2)CC3)C(c2cccc(Cl)c2F)C2(C(=O)Nc3cc(Cl)ccc32)C12CCCCC2
IC50 (second compound 0.00949 µM): 315 nM | IC50 (second compound 0.03 µM): 423 nM | IC50 (second compound 0.0949 µM): 267 nM | IC50 (second compound 0.3 µM): 306 nM | IC50 (second compound 0.949 µM): 279 nM | IC50 (second compound 3 µM): 284 nM | viability, T/C (second compound 0.00949 µM, first compound 0.00316 µM): 87.6% | viability, T/C (second compound 0.00949 µM, first compound 0.01 µM): 96.3% | viability, T/C (second compound 0.00949 µM, first compound 0.0316 µM): 101% | viability, T/C (second compound 0.00949 µM, first compound 0.1 µM): 85.2% | viability, T/C (second compound 0.00949 µM, first compound 0.316 µM): 50.2% | viability, T/C (second compound 0.00949 µM, first compound 1 µM): 30.3% | viability, T/C (second compound 0.03 µM, first compound 0.00316 µM): 91.7% | viability, T/C (second compound 0.03 µM, first compound 0.01 µM): 91.1% | viability, T/C (second compound 0.03 µM, first compound 0.0316 µM): 97.2% | viability, T/C (second compound 0.03 µM, first compound 0.1 µM): 76.7% | viability, T/C (second compound 0.03 µM, first compound 0.316 µM): 56% | viability, T/C (second compound 0.03 µM, first compound 1 µM): 35.8% | viability, T/C (second compound 0.0949 µM, first compound 0.00316 µM): 94.9% | viability, T/C (second compound 0.0949 µM, first compound 0.01 µM): 101% | viability, T/C (second compound 0.0949 µM, first compound 0.0316 µM): 92.5% | viability, T/C (second compound 0.0949 µM, first compound 0.1 µM): 70.5% | viability, T/C (second compound 0.0949 µM, first compound 0.316 µM): 47.9% | viability, T/C (second compound 0.0949 µM, first compound 1 µM): 31.2% | viability, T/C (second compound 0.3 µM, first compound 0.00316 µM): 110% | viability, T/C (second compound 0.3 µM, first compound 0.01 µM): 106% | viability, T/C (second compound 0.3 µM, first compound 0.0316 µM): 95.2% | viability, T/C (second compound 0.3 µM, first compound 0.1 µM): 77.1% | viability, T/C (second compound 0.3 µM, first compound 0.316 µM): 47.5% | viability, T/C (second compound 0.3 µM, first compound 1 µM): 35.8% | viability, T/C (second compound 0.949 µM, first compound 0.00316 µM): 108% | viability, T/C (second compound 0.949 µM, first compound 0.01 µM): 96.7% | viability, T/C (second compound 0.949 µM, first compound 0.0316 µM): 95.6% | viability, T/C (second compound 0.949 µM, first compound 0.1 µM): 75.3% | viability, T/C (second compound 0.949 µM, first compound 0.316 µM): 45.9% | viability, T/C (second compound 0.949 µM, first compound 1 µM): 34.5% | viability, T/C (second compound 3 µM, first compound 0.00316 µM): 118% | viability, T/C (second compound 3 µM, first compound 0.01 µM): 109% | viability, T/C (second compound 3 µM, first compound 0.0316 µM): 92% | viability, T/C (second compound 3 µM, first compound 0.1 µM): 79.3% | viability, T/C (second compound 3 µM, first compound 0.316 µM): 42.2% | viability, T/C (second compound 3 µM, first compound 1 µM): 32.5%
